Our source for the EC50 values is patent US10344019B2 (priority 2010, dated 2019).

Where two headings read alike, the source gives them in different places.

Test in all cases: microbe, parasite or virus in culture
Common to all, as to type: cell-based

Assay [1] has as its system HCV 2a JFH-1 Rluc cells (dicistronic genotype 2a JFH-1 replicon, RLuc reporter). To be noted: Hepatitis C virus, 72 h, genotype 2a JFH-1 replicon, 72 hours, read-out: 2a JFH. The method, then: (§1) Evaluation of cell-based anti-HCV activity: Antiviral potency (EC50) was determined using a Renilla luciferase (RLuc)-based HCV replicon reporter assay. To perform the assay for genotype 1 and 2a JFH-1, HCV 1b RLuc cells (harboring a dicistronic genotype 1b Con1 replicon that encodes a RLuc reporter), or HCV 1a RLuc cells (harboring a dicistronic genotype 1a H77 replicon that encodes a RLuc reporter), or HCV 2a JFH-1 Rluc cells (harboring a dicistronic genotype 2a JFH-1 replicon that encodes a RLuc reporter) were dispensed into 384-well plates. To perform the assay for genotype 2a (with M31 present) or 2b, HCV 2a Rluc or 2b Rluc cells (both with M31 present) harboring a dicistronic NS5A chimeric genotype 2a JFH-1 replicon that encodes a RLuc reporter and either genotype 2a J6 strain NS5A gene or genotype 2b MD2b-1 NS5A gene (based on Los Alamos HCV database isolates, both with M31 present) respectively, were dispensed into 384-well plates. To perform the assay for genotype 3 and 4, HCV 3a RLuc or 4a Rluc cells harboring a dicistronic NS5A chimeric genotype 1b Con1 replicon that encodes a RLuc reporter and either a consensus genotype 3a NS5A gene or genotype 4a NS5A gene (based on Los Alamos HCV database isolates) respectively, were dispensed into 384-well plates. Compounds were re-suspended in DMSO at a concentration of 10 mM and serially diluted in DMSO either manually or using an automated pipeting instrument. Serially diluted compounds were mixed with cell culture media and added to the seeded cells. […] 72 hours later, cells were lysed and Renilla luciferase activity quantified as recommended by the manufacturer (Promega-Madison, Wis.). Non-linear regression was performed to calculate EC50 values.
For orientation: In antiviral work, replicon cells carry a viral genome segment that copies itself.

The subject of assay [2] is HCV 3a RLuc cells (NS5A chimeric genotype 1b Con1 replicon with consensus genotype 3a NS5A gene). The note with it: Hepatitis C virus, genotype 3a NS5A chimeric replicon. Here is the method:
as §1

The subject of assay [3] is HCV 4a Rluc cells (NS5A chimeric genotype 1b Con1 replicon with genotype 4a NS5A gene). To be noted: Hepatitis C virus, read-out: 4a. Here is the method: as §1
Assay [4] concerns HCV 1a RLuc cells (dicistronic genotype 1a H77 replicon, RLuc reporter). To be noted: Hepatitis C virus, 72 h, genotype 1a H77 replicon, 72 hours, read-out: 1a. The method, then: as §1
The subject of assay [5] is HCV 1b RLuc cells (dicistronic genotype 1b Con1 replicon, RLuc reporter). To be noted: Hepatitis C virus, 72 h, read-out: 1b (nM). Here is the method: as §1

For `COC(=O)N[C@H](C(=O)N1CCC[C@H]1c1ncc(-c2ccc3c(c2)COc2c-3ccc3cc(-c4cnc([C@@H]5CCCN5C(=O)[C@H](NC(=O)OC)c5ccccc5)[nH]4)ccc23)[nH]1)C1CCOCC1` [Example 4], the EC50 in assay [1] (Table 1) is 0.001 to 0.999 nM; in assay [2] (read-out: 3a, Table 1), 0.001 to 0.99 nM; in assay [3], 0.001 to 0.99 nM; in assay [4] (Table 1) it was 0.001 to 0.999 nM; in assay [5], 0.11 nM.

For the molecule `COC(=O)N[C@@H](C(=O)N1CCC[C@H]1c1ncc(-c2ccc3c(c2)COc2c-3ccc3cc(-c4cnc([C@@H]5CCCN5C(=O)OCc5ccccc5)[nH]4)ccc23)[nH]1)c1ccccc1` [Example 5], the EC50 is 1 to 44 nM in assay [1] (Table 1); 0.001 to 0.99 nM in assay [2] (read-out: 3a, Table 1); 0.001 to 0.99 nM in assay [3]; greater than 44 nM in assay [4] (Table 1); 0.037 nM in assay [5].

With `COC(=O)N[C@H](C(=O)N1CCC[C@H]1c1ncc(-c2ccc3c(c2)COc2c-3ccc3cc(-c4cnc([C@@H]5CCCN5C(=O)OCc5ccccc5)[nH]4)ccc23)[nH]1)C1CCOCC1` [Example 6], the EC50 in assay [1] (Table 1) was 1 to 44 nM; in assay [2] (read-out: 3a, Table 1), greater than 5 nM; in assay [3], 0.001 to 0.99 nM; in assay [4] (Table 1) it was 1 to 44 nM; in assay [5] it was 0.051 nM.

For `COC(=O)N[C@@H](C)C(=O)N1CCC[C@H]1c1ncc(-c2ccc3c(c2)COc2c-3ccc3cc(-c4cnc([C@@H]5CCCN5C(=O)[C@H](NC(=O)OC)c5ccccc5)[nH]4)ccc23)[nH]1` [Example 7], the EC50 in assay [1] (Table 1) was 0.001 to 0.999 nM; in assay [2] (read-out: 3a, Table 1), 0.001 to 0.99 nM; in assay [3], 0.001 to 0.99 nM; in assay [4] (Table 1), 0.001 to 0.999 nM; in assay [5], 0.008 nM.

On to `COC(=O)NC(C(=O)N1CCC[C@@H]1c1ncc(-c2cc3c4c(c2)OCc2cc(-c5cnc([C@@H]6CCCN6C(=O)[C@@H](NC(=O)OC)C(C)C)[nH]5)cc(c2-4)OC3)[nH]1)C(C)C` (some centres unmarked) [Example 10], for which the EC50 was 0.001 to 0.999 nM in assay [1] (Table 1); 0.001 to 0.99 nM in assay [2] (read-out: 3a, Table 1); 0.001 to 0.99 nM in assay [3]; 1 to 44 nM in assay [4] (Table 1); 0.406 nM in assay [5].

As for `COC(=O)N[C@H](C(=O)N1CCC[C@H]1c1ncc(-c2ccc3c(c2)COc2c-3ccc3cc(-c4cnc([C@@H]5CCCN5C(=O)[C@H](NC(=O)OC)c5ccccc5)[nH]4)ccc23)[nH]1)[C@@H](C)OC` [Example 14], the EC50 in assay [1] (Table 1) was 0.001 to 0.999 nM; in assay [2] (read-out: 3a, Table 1), 0.001 to 0.99 nM; in assay [3] it was 0.001 to 0.99 nM; in assay [4] (Table 1) it was 0.001 to 0.999 nM; in assay [5], 0.01 nM.

For `COC(=O)N[C@H](C(=O)N1CCC[C@H]1c1ncc(-c2ccc3c(c2)COc2c-3ccc3cc(-c4cnc([C@@H]5CCCN5C(=O)[C@@H](NC(=O)OC)[C@@H](C)OC)[nH]4)ccc23)[nH]1)C1CCOCC1` [Example 15], the EC50 in assay [1] (Table 1) was 0.001 to 0.999 nM; in assay [2] (read-out: 3a, Table 1), 0.001 to 0.99 nM; in assay [3], 0.001 to 0.99 nM; in assay [4] (Table 1) it was 0.001 to 0.999 nM; in assay [5], 0.026 nM.

As for `COC(=O)N[C@H](C(=O)N1CCC[C@H]1c1ncc(-c2ccc3c(c2)COc2c-3ccc3cc(-c4cnc([C@@H]5CCCN5C(=O)[C@@H](NC(=O)OC)[C@@H](C)OC)[nH]4)ccc23)[nH]1)[C@@H](C)OC` [Example 17], the EC50 in assay [1] (Table 1) is 0.001 to 0.999 nM; in assay [2] (read-out: 3a, Table 1) it was greater than 5 nM; in assay [3] it was 0.001 to 0.99 nM; in assay [4] (Table 1), 0.001 to 0.999 nM; in assay [5], 0.014 nM.

On to `COC(=O)N[C@H](C(=O)N1CCC[C@H]1c1ncc(-c2ccc3c4ccc(-c5cnc([C@@H]6CCCN6C(=O)[C@@H](NC(=O)OC)C(C)C)[nH]5)cc4c4nccnc4c3c2)[nH]1)C(C)C` [Example 18], for which the EC50 was 0.001 to 0.999 nM in assay [1] (Table 1); 1 to 4.99 nM in assay [2] (read-out: 3a, Table 1); 0.001 to 0.99 nM in assay [3]; 0.001 to 0.999 nM in assay [4] (Table 1); 0.018 nM in assay [5].

Consider `COC(=O)N[C@H](C(=O)N1CCC[C@H]1c1ncc(-c2ccc3c4ccc(-c5cnc([C@@H]6CCCN6C(=O)[C@@H](NC(=O)OC)C(C)C)[nH]5)cc4c4nc5ccccc5nc4c3c2)[nH]1)C(C)C` [Example 19], for which the EC50 in assay [1] (Table 1) is 1 to 44 nM; in assay [2] (read-out: 3a, Table 1), greater than 5 nM; in assay [3] it was 0.001 to 0.99 nM; in assay [4] (Table 1), 1 to 44 nM; in assay [5] it was 0.01 nM.

For the molecule `COC(=O)N[C@H](C(=O)N1CCC[C@H]1c1ncc(-c2cc3c4c(c2)CCc2cc(-c5cnc([C@@H]6CCCN6C(=O)[C@@H](NC(=O)OC)C(C)C)[nH]5)cc(c2-4)CC3)[nH]1)C(C)C` [Example 20], the EC50 was 0.001 to 0.999 nM in assay [1] (Table 1); 0.001 to 0.99 nM in assay [2] (read-out: 3a, Table 1); 0.001 to 0.99 nM in assay [3]; 0.001 to 0.999 nM in assay [4] (Table 1); 0.021 nM in assay [5].

On to `COC(=O)NC(C(=O)N1CCC[C@H]1c1ncc(-c2cc3c4c(c2)CCc2cc(-c5cnc([C@@H]6CCCN6C(=O)[C@@H](NC(=O)OC)[C@@H](C)OC)[nH]5)cc(c2-4)CC3)[nH]1)[C@@H](C)OC` (some centres unmarked) [Example 21], for which the EC50 was 0.001 to 0.999 nM in assay [1] (Table 1); 0.001 to 0.99 nM in assay [2] (read-out: 3a, Table 1); 0.001 to 0.99 nM in assay [3]; 0.001 to 0.999 nM in assay [4] (Table 1); 0.06 nM in assay [5].

For `COC(=O)N[C@H](C(=O)N1CCC[C@H]1c1ncc(-c2cc3c4c(c2)CCc2cc(-c5cnc([C@@H]6CCCN6C(=O)[C@@H](NC(=O)OC)C6CCOCC6)[nH]5)cc(c2-4)CC3)[nH]1)C(C)C` [Example 23], the EC50 was 0.001 to 0.999 nM in assay [1] (Table 1); 0.001 to 0.99 nM in assay [2] (read-out: 3a, Table 1); 0.001 to 0.99 nM in assay [3]; 0.001 to 0.999 nM in assay [4] (Table 1); 0.067 nM in assay [5].

For the molecule `COC(=O)N[C@H](C(=O)N1CCC[C@H]1c1ncc(-c2cc3c4c(c2)CCc2cc(-c5cnc([C@@H]6CCCN6C(=O)[C@@H](NC(=O)OC)[C@H](C)OC)[nH]5)cc(c2-4)CC3)[nH]1)C(C)C` [Example 25], the EC50 in assay [1] (Table 1) was 0.001 to 0.999 nM; in assay [2] (read-out: 3a, Table 1) it was 0.001 to 0.99 nM; in assay [3] it was 0.001 to 0.99 nM; in assay [4] (Table 1), 0.001 to 0.999 nM; in assay [5], 0.021 nM.

Turning to `COC(=O)N[C@H](C(=O)N1CCC[C@H]1c1nc2ccc3cc(-c4ccc5cc(-c6cnc([C@@H]7[C@H]8CC[C@H](C8)N7C(=O)[C@H](NC(=O)OC)c7ccccc7)[nH]6)ccc5c4)ccc3c2[nH]1)C(C)C` [Example 39], the EC50 in assay [1] (Table 2) is 1 to 44 nM; in assay [2] (read-out: 3a, Table 2) it was 1 to 4.99 nM; in assay [3] it was 0.001 to 0.99 nM; in assay [4] (Table 2), 0.001 to 0.999 nM; in assay [5] it was 0.009 nM.

On to `COC(=O)N[C@H](C(=O)N1CCC[C@H]1c1ncc(-c2ccc3c(c2)C(F)(F)c2cc(-c4ccc5nc([C@@H]6[C@H]7CC[C@H](C7)N6C(=O)[C@H](NC(=O)OC)c6ccccc6)[nH]c5c4)ccc2-3)[nH]1)C(C)C` [Example 40], for which the EC50 is 0.001 to 0.999 nM in assay [1] (Table 2); 1 to 4.99 nM in assay [2] (read-out: 3a, Table 2); 0.001 to 0.99 nM in assay [3]; 0.001 to 0.999 nM in assay [4] (Table 2); 0.005 nM in assay [5].

Consider `COC(=O)N[C@H](C(=O)N1[C@@H]2CC[C@@H](C2)[C@H]1c1nc2ccc(-c3ccc4c(c3)C(F)(F)c3cc(-c5cnc([C@@H]6CCCN6C(=O)[C@H](NC(=O)OC)c6ccccc6)[nH]5)ccc3-4)cc2[nH]1)C(C)C` [Example 41], for which the EC50 was 0.001 to 0.999 nM in assay [1] (Table 2); 0.001 to 0.99 nM in assay [2] (read-out: 3a, Table 2); 0.001 to 0.99 nM in assay [3]; 0.001 to 0.999 nM in assay [4] (Table 2); 0.005 nM in assay [5].

`COC(=O)N[C@H](C(=O)N1[C@@H]2CC[C@@H](C2)[C@H]1c1ncc(-c2ccc(-c3ccc4cc(-c5cnc([C@@H]6CCCN6C(=O)[C@H](NC(=O)OC)c6ccccc6)[nH]5)ccc4c3)cc2)[nH]1)C(C)C` [Example 42]: the EC50 in assay [1] (Table 2) was 0.001 to 0.999 nM; in assay [2] (read-out: 3a, Table 2), 1 to 4.99 nM; in assay [3], 0.001 to 0.99 nM; in assay [4] (Table 2), 0.001 to 0.999 nM; in assay [5] it was 0.008 nM.

`COC(=O)N[C@H](C(=O)N1CC2(C[C@H]1c1ncc(-c3ccc4cc(-c5ccc(-c6cnc([C@@H]7CCCN7C(=O)[C@H](NC(=O)OC)c7ccccc7)[nH]6)cc5)ccc4c3)[nH]1)OCCO2)C(C)C` [Example 43]: the EC50 in assay [1] (Table 2) is 0.001 to 0.999 nM; in assay [2] (read-out: 3a, Table 2), 1 to 4.99 nM; in assay [3] it was 0.001 to 0.99 nM; in assay [4] (Table 2) it was 0.001 to 0.999 nM; in assay [5], 0.009 nM.
